Data on five molecules can be found in patent publication US8853373B2, “Method and reagent for gene sequence analysis” (Hitachi, Ltd., priority 2009, dated 2014).

What all share (assay type): biochemical
In experiment [1] the test system is nucleotides G, C, and A (Sequence GA, Sequence CG, Sequence AG). Put plainly: Exclusivity of the other nucleotides (G, C, and A), elongation luminescence. Particulars: for Exclusivity of the other nucleotides (G, C, and A): CG, AG, luminescence normalized to dCTP, dGTP, dTTP as 1. The procedure:
(§1) Incorporation into nucleic acid was evaluated as follows. First, one of the above sequences was used as a target. Next, the primer was made to complementarily bind to the target. Then, an elongation experiment was carried out using the respective nucleic acid substrates for that sample. The synthesized nucleic acid substrate requires an affinity (complementary characteristics) with nucleotide T, and exclusivity of the other nucleotides (G, C, and A). The affinity with nucleotide T was evaluated using the Sequence TG and the primer. The exclusivity of the other nucleotides (G, C, and A) was evaluated using the respective Sequence GA, Sequence CG, and Sequence AG, and the primer. In addition, Sequence 5T was used for the evaluation of an ability of continuous incorporation into nucleotide T.
(§2) A sequencing method using a stepwise chemical reaction is described below. First, 35 μL of ultrapure water, 5 μL of oligo DNA (10 μM) of analysis object (target), and 5 μL of a primer (20 μM) were mixed with 5 μL of a hybridization buffer (10 mM Tris-Acetate, 20 mM Mg-Acetate, pH 7.75) (a sample solution: the final volume was 50 μL). Then, the sample solution was heated at 94° C. for 20 seconds, and reacted at a Tm temperature of the primer for 2 minutes. After that, 0.5 μL, (target: […], primer: […]) of this sample solution, 20 of a luminescence reagent which is designated in Condition 2 of Table 1, and 0.2 μL of a polymerase enzyme (the final concentration: 0.05 U/4) were mixed to prepare a reaction reagent (the final volume was 20.7 μL). To this reaction reagent was added 0.4 μL of 100 μM nucleic acid substrate (the final concentration 2 μM). When nucleic acid elongation occurs, bioluminescence derived from pyrophosphate of the elongation reaction product can be observed. The reaction has a luminescence peak a few seconds after the reaction initiation. […] This luminescence peak value is virtually proportional to the amount of generated pyrophosphate. Measurement of the peak value enables a degree of nucleic acid elongation to be estimated.
Next, with regard to the respective synthetic substrates, the exclusivity of the other nucleotides (G, C, and A) was assessed using each of Sequence GA, Sequence CG, and Sequence AG and the primer. […] In addition, a background luminescence component of the respective substrates was compensated by taking its difference into account in a manner similar to that of the preceding figures.

For experiment [2], the system named is 5 consecutive nucleotides of T (Sequence 5T). Description: Ability of incorporation into consecutive nucleotides of T (Sequence 5T), three consecutive injections. Particulars: 5 consecutive nucleotides; final concentration 4 μM; E1 = luminescence of 2nd and 3rd injections / total of 1st to 3rd. The procedure:
as §1, §2
Next, by using Sequence 5T, the ability of incorporation of the respective synthetic substrates into consecutive nucleotides of T was evaluated by the following procedure. The reaction reagent was prepared by using Sequence 5T as a target oligo in the same manner as in the case of evaluation of elongation of one nucleotide as described before. In this case, a target oligo 111 and a primer 112 form a complementary strand binding as depicted in FIG. 11(1). Due to the above, when dATP is dispensed into this reaction reagent as a substrate, five molecules of the substrate are consecutively elongated per target molecule as a primer having the substrate at the 3′ end 113, thereby releasing five molecules of pyrophosphate. If the elongation for all the five nucleotides is not completed, a portion of the nucleotide T remains in a single-stranded state. Because of this, when substrate dATP is dispensed again, the portion is elongated only in the case where a portion of incomplete elongation remains. Therefore, the release of pyrophosphate can be detected as luminescence. […] In addition, substrate dCTP, which is complementary to nucleotide G 114, was subsequently dispensed twice to detect luminescence. […]

Experiment [3] relates to nucleotide T (Sequence TG). Description: Affinity between synthetic substrates and nucleotide T (one-nucleotide elongation, Sequence TG, luminescence). The conditions noted are these: compared with dATPαS / other substrates. The procedure:
as §1
A sequencing method using a stepwise chemical reaction is described below. […] After that, 0.5 μL, (target: […], primer: […]) of this sample solution, 20 of a luminescence reagent which is designated in Condition 2 of Table 1, and 0.2 μL of a polymerase enzyme (the final concentration: 0.05 U/4) were mixed to prepare a reaction reagent (the final volume was 20.7 μL). […] The reaction has a luminescence peak a few seconds after the reaction initiation. […] This luminescence peak value is virtually proportional to the amount of generated pyrophosphate. […]

The next experiment concerns the target luciferase (Photinus pyralis, UniProt P08659). Put plainly: Evaluation of substrate specificity for luciferase (luminescence on dispensing the substrate). The procedure:
In respect to the nucleic acid substrates synthesized, whether or not the substrates became a substrate for luciferase was evaluated by the following procedure. First, a luminescence reagent designated in Condition 1 of Table 1 was prepared.
Next, a reaction solution was prepared using 20 μL of this luminescence reagent, and 0.2 μL of a nucleic acid substrate of evaluation subject was injected. Then, luminescence emitted at this occasion was estimated. FIG. 6 is a graph showing the amount of luminescence when ATP, dATP, C^7dATP, and dATPαS are each dispensed as a substrate. The abscissa (C) indicates a final concentration of the compound in a reaction reagent. For example, when 0.2 μl of 1 μM substrate is dispensed, the final concentration is about 0.01 μM. An amount of luminescence (U) indicated in the ordinate was plotted by normalizing the amount of luminescence at 0.01 μM of ATP as 1. From this graph, the amount of luminescence (U) is found to be proportional to the final concentration (C). Because of this, as a substrate specificity (or substrate reactivity) for luciferase, the value (S) indicating the amount of luminescence per unit concentration is defined as described below. Substrate specificity (S)≡Amount of luminescence (U)/Final concentration (C)[μM]×0.01 (In this Definition, the Substrate Specificity of ATP is Normalized as 1).
The four points designated in the left side of the graph indicate each substrate specificity (S) of ATP, dATP, dATPαS, and C^7dATP. For a sequencing method using a stepwise chemical reaction represented by pyrosequencing, the amount of ATP generated from pyrophosphate produced in elongation of one nucleotide is equivalent to the amount of a target present in a reaction solution when all of the targets have been elongated. In addition, elongation of a plurality of nucleotides causes the amount to be multiplied by the number of the nucleotides. Generally speaking, the amount of a nucleic acid substrate which should be dispensed per reaction for sequencing requires about 100 times the amount of the target for analysis. This is because a sequenced region may sometimes contain about 10 consecutive identical nucleotides; and a reaction solution for this sequencing method has a substrate-degrading enzyme together, so that the nucleic acid elongation and substrate degradation are competed. Shortage of the substrates causes incomplete elongation, so that the following sequence analysis cannot be carried out. […] As a countermeasure against it, the substrate having about 100 times the target amount which has been generally used is preferably dispensed per reaction.
In this Example, the synthesized nucleic acid substrates were purified by liquid chromatography. However, removal of pyrophosphate that had been incorporated during the synthesis may be insufficiently carried out only by liquid chromatography-mediated purification. At that occasion, the present inventors treated the synthesized nucleic acid substrates by a pyrophosphate-degrading enzyme (PPase) to decompose the pyrophosphate. Specifically, the synthesized nucleic acid substrate was diluted in a reaction solution (100 mM Tris-Acetate, 0.5 mM EDTA, 5 mM Mg-Acetate, 1 mM DTT, pH 7.5) at a concentration of 500 μM. Then, PPase was added at 0.2 mU/μL, and the mixture was reacted at 30° C. for 30 minutes, which caused degradation of pyrophosphate in the solution. This method represents one example. […]

Another experiment relates to DNA Sequence S2. Description: Sequence analysis by stepwise chemical reaction (pyrogram), PPDK system, Condition 4. Particulars: DNA Sequence S2 (3 consecutive nucleotides). The procedure:
Therefore, a sequence having 3 consecutive nucleotides of T was analyzed for comparison. Analyzed DNA Sequence S2 and a primer P3 are described below.
Of note is that Sequence P3 represents a primer sequence. This primer can complementarily bind to the underlined portion of the above DNA Sequence S2. FIGS. 16 to 20 show the results of a sequence analysis. In addition, the reagent conditions were listed together in the following Table 3.
In this experiment, an enzyme system which converts PPi into ATP has employed an enzyme system in which PPi and AMP are converted into ATP by PPDK as described in the conventional technique (Patent Literature 4). The items of the figure are identical to those of FIG. 15. At the bottom of the respective figures, the injected nucleotide types are designated. At the top, the nucleotide types which have been incorporated into a complementary DNA sequence of analysis object are designated. The substrate was injected in the order of “bases A, T, C, and G”, and 7 cycles were analyzed. As indicated in the target sequence, in this analysis, two regions (Cycle 4 and Cycle 7) having 3 consecutive nucleotides of A incorporated are present. Because of this, a difference in the ability of continuous incorporation of a nucleic acid substrate that is used as a nucleotide A can be assessed. Hereinafter, the details are described.
First, three kinds of the substrates (A3d, dATPαS, and C^7dATP) having the final concentration of 2 μM were used. The results of a sequence analysis will be described (FIGS. 16 to 20). […] At the time of dispensing A (surrounded by the circle ◯) which represented the injected nucleotide type, A3d was used. […] Accordingly, as the signal corresponding to A at the first cycle indicated, background luminescence was observed. Due to this phenomenon, the luminescence signal corresponding to nucleotide A constantly included the increased background luminescence. The symbol • in the figure denotes elongation luminescence corresponding to a nucleotide sequence of a sample. In contrast, the major luminescence without corresponding to the nucleotide sequence is represented by the symbol ∇. […] At the time of dispensing A (surrounded by the circle ◯) which represented the injected nucleotide type, dATPαS was used. The resulting pyrogram and the nucleotide sequence of a sample were compared. The symbol • in the figure denotes elongation luminescence corresponding to a nucleotide sequence of a sample. In contrast, the major luminescence without corresponding to the nucleotide sequence is represented by the symbol ∇. […] At the time of dispensing A (surrounded by the circle ◯) which represented the injected nucleotide type, C^7dATP was used. […] Accordingly, as the signal corresponding to A at the first cycle indicated, big background luminescence was observed. Due to this phenomenon, the luminescence signal corresponding to nucleotide A constantly included the increased background luminescence. The symbol x in the figure denotes just a background luminescence signal. The symbol • denotes elongation luminescence corresponding to a nucleotide sequence of a sample. However, the symbol (•) denotes inclusion of both elongation-derived luminescence and background luminescence. In contrast, the major luminescence without corresponding to the nucleotide sequence is represented by the symbol ∇.

Sequence of luciferase (P08659 whole entry, species assumed): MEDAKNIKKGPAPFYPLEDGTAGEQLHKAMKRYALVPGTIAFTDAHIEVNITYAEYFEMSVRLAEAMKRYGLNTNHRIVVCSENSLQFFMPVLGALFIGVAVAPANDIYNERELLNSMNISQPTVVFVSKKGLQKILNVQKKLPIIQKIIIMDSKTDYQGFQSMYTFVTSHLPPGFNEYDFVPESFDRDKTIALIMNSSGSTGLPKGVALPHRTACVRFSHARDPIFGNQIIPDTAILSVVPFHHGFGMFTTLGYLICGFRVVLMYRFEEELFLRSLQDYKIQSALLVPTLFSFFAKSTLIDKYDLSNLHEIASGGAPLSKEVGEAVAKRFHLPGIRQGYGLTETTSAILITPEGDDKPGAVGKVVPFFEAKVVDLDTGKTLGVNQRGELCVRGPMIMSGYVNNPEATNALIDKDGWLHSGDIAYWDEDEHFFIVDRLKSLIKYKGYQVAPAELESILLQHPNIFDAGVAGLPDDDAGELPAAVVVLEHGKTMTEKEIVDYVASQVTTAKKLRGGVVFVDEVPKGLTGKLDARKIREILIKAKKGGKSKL

Turning to `Nc1ncnc2c1c(/C=C/C(=O)NCCc1ccccc1)cn2[C@H]1CC(O)[C@@H](COP(=O)(O)OP(=O)(O)OP(=O)(O)O)O1` (some centres unmarked) [A3a], the “Exclusivity of the other nucleotides (G, C, and A)” value (“Exclusivity … (G, C, and A)” for short) in experiment [1] is “exhibits luminescence for all the three kinds of nucleotides”.
For the molecule `Nc1ncnc2c1c(/C=C/C(=O)NCCc1ccccn1)cn2[C@H]1CC(O)[C@@H](COP(=O)(O)OP(=O)(O)OP(=O)(O)O)O1` (some centres unmarked) [A3b], the “Exclusivity … (G, C, and A)” value in experiment [1] was “excellent exclusivity”. In experiment [2], the “Rate of Incomplete Elongation after the First Injection (%)” value was 11.2 ± 2.9%.
As to `CCCNC(=O)/C=C/c1cn([C@H]2CC(O)[C@@H](COP(=O)(O)OP(=O)(O)OP(=O)(O)O)O2)c2ncnc(N)c12` (some centres unmarked) [A3c], the “Reaction rate of nucleic acid elongation (luminescence profile)” value in experiment [3] was “higher reaction rate”. Besides, in experiment [1], the “Exclusivity of nucleotide G” value is “a little poor exclusivity”; the “Exclusivity … (G, C, and A)” value was “generally good”.
`NCCCCCCNC(=O)CCc1cn([C@H]2CC(O)[C@@H](COP(=O)(O)OP(=O)(O)OP(=O)(O)O)O2)c2ncnc(N)c12` (some centres unmarked) [B4]: the “Exclusivity … (G, C, and A)” value in experiment [1] is listed as “exhibits luminescence”.
For `Nc1ncnc2c1ccn2[C@H]1C[C@H](O)[C@@H](COP(=O)(O)OP(=O)(O)OP(=O)(O)O)O1` [C^7dATP, 7-deaza-2′-deoxyadenosine triphosphate], at luciferase (FIG. 7), the “Substrate specificity for luciferase compared with that of dATPαS” value was “about two orders higher”. Besides, the “Substrate specificity (S) for luciferase, relative to that of ATP” value at luciferase (amount of luminescence per unit concentration, substrate specificity of ATP normalized as 1) is recorded as “about 1/250”. In addition, the “Sequence analysis result as substitute for dATP” value with DNA Sequence S2 (final concentration 2 μM, 7 cycles) was “substrate-derived background luminescence was large, so that the precise sequence identification was found to be difficult”; with DNA Sequence S2 (final concentration 4 μM), “incomplete elongation for the nucleotide G at Cycle 5 was not improved”.
